Measured values taken from patent publication US10273222B2 (CELGENE QUANTICEL RESEARCH, INC., priority 2013, dated 2019).

Legend:
Type in all cases: biochemical
Jarid1A = Jarid1A (Homo sapiens (Human), UniProt P29375); assay: Jarid1A in vitro enzyme inhibition assay (TR-FRET)
Source text: The enzymatic assay of Jarid1A activity is based upon Time Resolved-Fluorescence Resonance Energy Transfer (TR-FRET) detection.

Jarid1B = Jarid1B (Homo sapiens (Human), UniProt Q9UGL1); assay: Jarid1B in vitro enzyme inhibition assay (TR-FRET)
Chain of Jarid1B (Q9UGL1 2-751): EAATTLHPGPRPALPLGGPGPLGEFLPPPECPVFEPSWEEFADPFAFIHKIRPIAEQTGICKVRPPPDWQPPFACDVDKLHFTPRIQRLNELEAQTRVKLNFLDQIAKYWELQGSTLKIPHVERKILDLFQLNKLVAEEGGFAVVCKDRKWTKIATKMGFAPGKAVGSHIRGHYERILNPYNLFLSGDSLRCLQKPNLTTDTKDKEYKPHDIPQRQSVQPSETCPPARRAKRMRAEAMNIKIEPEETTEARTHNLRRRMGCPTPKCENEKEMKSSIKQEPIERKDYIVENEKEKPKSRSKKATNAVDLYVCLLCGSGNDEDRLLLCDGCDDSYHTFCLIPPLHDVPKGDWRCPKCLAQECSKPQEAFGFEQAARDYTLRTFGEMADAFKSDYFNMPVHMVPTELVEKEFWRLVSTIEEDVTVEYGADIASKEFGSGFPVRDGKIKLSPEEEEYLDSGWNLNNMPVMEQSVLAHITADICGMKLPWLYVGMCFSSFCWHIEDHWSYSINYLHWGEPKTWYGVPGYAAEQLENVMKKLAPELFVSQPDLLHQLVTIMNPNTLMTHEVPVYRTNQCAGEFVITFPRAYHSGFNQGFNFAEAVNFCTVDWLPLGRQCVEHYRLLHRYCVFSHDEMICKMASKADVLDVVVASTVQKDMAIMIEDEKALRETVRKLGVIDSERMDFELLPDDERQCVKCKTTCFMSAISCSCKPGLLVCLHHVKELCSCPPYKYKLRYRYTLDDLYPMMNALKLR
Experimental: This assay determines the ability of a test compound to inhibit Jarid1A, Jarid1B, JMJD2C, and JMJD2A demethylase activity.
The ability of test compounds to inhibit the activity of Jarid1B was determined in 384-well plate format under the following reaction conditions: 0.8 nM Jarid1B, 300 nM H3K4me3-biotin labeled peptide (Anaspec cat #64357), 2 μM alpha-ketoglutaric acid in assay buffer of 50 mM HEPES, pH7.3, 0.005% Brij35, 0.5 mM TCEP, 0.2 mg/ml BSA, 50 μM sodium L-ascorbate, and 2 μM ammonium iron(II) sulfate. Reaction product was determined quantitatively by TR-FRET after the addition of detection reagent Phycolink Streptavidin-allophycocyanin (Prozyme) and Europium-anti-mono- or di-methylated histone H3 lysine 4 (H3K4me1-2) antibody (PerkinElmer) in the presence of 5 mM EDTA in LANCE detection buffer (PerkinElmer) at a final concentration of 25 nM and 1 nM, respectively.
The assay reaction was initiated by the following: 2 μl of the mixture of 900 nM H3K4me3-biotin labeled peptide and 6 μM alpha-ketoglutaric acid with 2 μl of 11-point serial diluted inhibitor in 3% DMSO was added to each well of the plate, followed by the addition of 2 μl of 2.4 nM Jarid1B to initiate the reaction. The reaction mixture was incubated at room temperature for 30 minutes, and terminated by the addition of 6 μl of 5 mM EDTA in LANCE detection buffer containing 50 nM Phycolink Streptavidin-allophycocyanin and 2 nM Europium-anti-H3K4me1-2 antibody. Plates were read by EnVisionMultilabel Reader in TR-FRET mode (excitation at 320 nm, emission at 615 nm and 665 nm) after 1 hour incubation at room temperature. A ratio was calculated (665/615) for each well and fitted to determine inhibition constant (IC50).

JMJD2C = JMJD2C (Homo sapiens (Human), UniProt Q9H3R0); assay: JMJD2C in vitro enzyme inhibition assay (TR-FRET)
Chain of JMJD2C (Q9H3R0 2-372): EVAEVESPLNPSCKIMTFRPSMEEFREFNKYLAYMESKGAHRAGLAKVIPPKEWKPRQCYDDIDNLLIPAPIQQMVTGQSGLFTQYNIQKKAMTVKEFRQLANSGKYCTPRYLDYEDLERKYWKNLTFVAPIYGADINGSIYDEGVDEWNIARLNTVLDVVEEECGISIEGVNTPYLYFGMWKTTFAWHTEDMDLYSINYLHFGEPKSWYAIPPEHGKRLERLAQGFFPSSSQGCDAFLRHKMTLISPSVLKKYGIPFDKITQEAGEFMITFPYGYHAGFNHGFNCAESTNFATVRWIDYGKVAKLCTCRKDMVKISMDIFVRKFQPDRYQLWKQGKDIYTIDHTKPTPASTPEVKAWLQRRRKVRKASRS

JMJD2A = JMJD2A (Homo sapiens (Human), UniProt O75164); assay: JMJD2A in vitro enzyme inhibition assay (TR-FRET)
Chain of JMJD2A (O75164 1-350): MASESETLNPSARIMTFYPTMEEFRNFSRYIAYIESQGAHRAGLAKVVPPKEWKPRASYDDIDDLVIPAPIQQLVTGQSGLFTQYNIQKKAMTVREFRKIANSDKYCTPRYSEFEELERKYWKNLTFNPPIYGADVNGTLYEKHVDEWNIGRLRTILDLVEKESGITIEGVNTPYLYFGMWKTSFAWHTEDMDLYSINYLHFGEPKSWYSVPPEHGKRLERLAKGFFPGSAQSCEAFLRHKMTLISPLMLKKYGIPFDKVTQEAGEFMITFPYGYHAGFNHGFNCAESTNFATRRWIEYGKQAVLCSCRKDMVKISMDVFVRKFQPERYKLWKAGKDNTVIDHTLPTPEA
Experimental: This assay determines the ability of a test compound to inhibit Jarid1A, Jarid1B, JMJD2C, and JMJD2A demethylase activity. […] Baculovirus expressed JMJD2A (GenBank Accession #NM_014663, AA 1-350) was purchased from BPS Bioscience (Cat#50123).
The ability of test compounds to inhibit the activity of JMJD2A was determined in 384-well plate format under the following reaction conditions: 2 nM JMJD2A, 300 nM H3K9me3-biotin labeled peptide (Anaspec cat #64360), 2 μM alpha-ketoglutaric acid in assay buffer of 50 mM HEPES, pH7.3, 0.005% Brij35, 0.5 mM TCEP, 0.2 mg/ml BSA, 50 μM sodium L-ascorbate, and 2 μM ammonium iron(II) sulfate. Reaction product was determined quantitatively by TR-FRET after the addition of detection reagent Phycolink Streptavidin-allophycocyanin (Prozyme) and Europium-anti-di-methylated histone H3 lysine 9 (H3K9me2) antibody (PerkinElmer) in the presence of 5 mM EDTA in LANCE detection buffer (PerkinElmer) at a final concentration of 50 nM and 1 nM, respectively.
The assay reaction was initiated by the following: 2 μl of the mixture of 900 nM H3K9me3-biotin labeled peptide and 6 μM alpha-ketoglutaric acid with 2 μl of 11-point serial diluted inhibitor in 3% DMSO were added to each well of plate, followed by the addition of 2 μl of 6 nM JMJD2A to initiate the reaction. The reaction mixture was incubated at room temperature for 30 minutes, and terminated by the addition of 6 μl of 5 mM EDTA in LANCE detection buffer containing 100 nM Phycolink Streptavidin-allophycocyanin and 2 nM Europium-anti-H3K9me2 antibody. Plates were read by EnVisionMultilabel Reader in TR-FRET mode (excitation at 320 nm, emission at 615 nm and 665 nm) after 1 hour incubation at room temperature. A ratio was calculated (665/615) for each well and fitted to determine inhibition constant (IC50).

FBXL10 = FBXL10 (Homo sapiens (Human), UniProt Q8NHM5); assay: FBXL10 in vitro enzyme inhibition assay (AlphaScreen)
Chain of FBXL10 (Q8NHM5 1-650): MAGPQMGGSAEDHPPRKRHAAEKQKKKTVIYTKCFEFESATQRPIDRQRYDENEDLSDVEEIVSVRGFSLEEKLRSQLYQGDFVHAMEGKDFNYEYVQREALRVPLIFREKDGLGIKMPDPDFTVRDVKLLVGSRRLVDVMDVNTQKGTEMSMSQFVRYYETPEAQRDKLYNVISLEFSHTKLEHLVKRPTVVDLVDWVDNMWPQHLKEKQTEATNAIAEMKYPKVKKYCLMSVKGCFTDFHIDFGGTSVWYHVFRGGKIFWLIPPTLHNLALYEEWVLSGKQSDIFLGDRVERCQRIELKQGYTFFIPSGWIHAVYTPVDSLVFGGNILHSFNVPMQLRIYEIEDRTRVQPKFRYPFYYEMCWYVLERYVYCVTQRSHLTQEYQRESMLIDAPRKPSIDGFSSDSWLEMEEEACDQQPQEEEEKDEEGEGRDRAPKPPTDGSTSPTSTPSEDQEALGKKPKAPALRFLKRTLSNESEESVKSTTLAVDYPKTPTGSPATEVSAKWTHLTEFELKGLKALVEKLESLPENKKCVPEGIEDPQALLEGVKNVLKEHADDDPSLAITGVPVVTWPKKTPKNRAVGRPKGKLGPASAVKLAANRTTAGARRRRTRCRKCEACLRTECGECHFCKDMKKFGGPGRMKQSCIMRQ
Outline: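 AlphaScreen read-out of H3K36me1 product, detected with anti-H3K36me1 antibody plus streptavidin donor and Protein A acceptor beads (final 10 μg/ml) in 50 mM HEPES pH 7.3, 10 mM NaCl, 0.005% Brij35, 5 mM EDTA, 2 mg/ml BSA. Beads incubated 2 h to overnight at room temperature; IC50 derived from AlphaScreen signal.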

Chain of Jarid1A (P29375 1-1090): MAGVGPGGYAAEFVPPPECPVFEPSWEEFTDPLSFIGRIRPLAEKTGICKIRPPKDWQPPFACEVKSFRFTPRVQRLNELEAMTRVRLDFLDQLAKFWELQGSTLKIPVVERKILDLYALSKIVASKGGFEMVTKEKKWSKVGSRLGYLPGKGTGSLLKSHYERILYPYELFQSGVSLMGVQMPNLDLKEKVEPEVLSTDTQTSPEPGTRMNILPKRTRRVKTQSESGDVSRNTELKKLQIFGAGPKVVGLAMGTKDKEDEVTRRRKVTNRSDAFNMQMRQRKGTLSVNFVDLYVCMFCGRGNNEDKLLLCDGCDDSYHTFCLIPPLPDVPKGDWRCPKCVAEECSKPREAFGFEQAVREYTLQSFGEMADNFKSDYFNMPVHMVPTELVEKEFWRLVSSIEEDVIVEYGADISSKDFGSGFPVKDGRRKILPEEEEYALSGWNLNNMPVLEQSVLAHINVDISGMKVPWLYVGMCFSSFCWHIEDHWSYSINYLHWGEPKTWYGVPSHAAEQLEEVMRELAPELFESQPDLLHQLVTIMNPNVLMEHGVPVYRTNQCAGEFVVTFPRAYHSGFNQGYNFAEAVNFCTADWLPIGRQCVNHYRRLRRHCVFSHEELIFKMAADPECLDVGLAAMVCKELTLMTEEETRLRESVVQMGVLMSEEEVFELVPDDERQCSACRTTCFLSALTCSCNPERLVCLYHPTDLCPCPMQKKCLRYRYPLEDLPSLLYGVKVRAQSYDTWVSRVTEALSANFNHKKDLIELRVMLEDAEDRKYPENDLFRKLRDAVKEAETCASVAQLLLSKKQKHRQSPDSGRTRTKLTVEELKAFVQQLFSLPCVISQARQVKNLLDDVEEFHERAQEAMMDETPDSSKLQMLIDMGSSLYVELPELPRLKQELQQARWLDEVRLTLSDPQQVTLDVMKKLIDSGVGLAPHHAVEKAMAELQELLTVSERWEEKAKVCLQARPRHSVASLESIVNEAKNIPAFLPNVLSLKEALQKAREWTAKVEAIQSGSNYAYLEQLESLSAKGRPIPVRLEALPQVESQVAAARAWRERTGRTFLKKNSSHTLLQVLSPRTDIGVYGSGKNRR

| SMILES | IC50 (Jarid1A) [nM] | IC50 (Jarid1B) [nM] | IC50 (JMJD2C) [nM] | IC50 (JMJD2A) [nM] | IC50 (FBXL10) [nM] |
| --- | --- | --- | --- | --- | --- |
| CN(CCn1cnc(-c2cc(C(=O)O)ccn2)c1)Cc1ccc(F)cc1 [Example 38, 2-[1-[2-[(4-fluorophenyl)methyl-methylamino]ethyl]imidazol-4-yl]pyridine-4-carboxylic acid] | ≤ 100 | ≤ 100 | ≤ 100 | ≤ 100 | ≤ 100 |
| CN(C)CCOCCn1cnc(-c2cc(C(=O)O)ccn2)c1 [Example 48, 2-(1-{2-[2-(dimethylamino)ethoxy]ethyl}-1H-imidazol-4-yl)pyridine-4-carboxylic acid] | ≤ 100 | ≤ 100 | ≤ 100 | ≤ 100 | 100 to 1000 |
| CN1CCC(Cn2cnc(-c3cc(C(=O)O)ccn3)c2)CC1 [Example 50, 2-{1-[(1-methylpiperidin-4-yl)methyl]-1H-imidazol-4-yl}pyridine-4-carboxylic acid] | ≤ 100 | ≤ 100 | ≤ 100 | ≤ 100 | 1000 to 10000 |
| CN(CCn1cnc(-c2cc(C(=O)O)ccn2)c1)c1ccccc1 [Example 58, 2-(1-{2-[methyl(phenyl)amino]ethyl}-1H-imidazol-4-yl)pyridine-4-carboxylic acid] | ≤ 100 | ≤ 100 | 100 to 1000 | 100 to 1000 | ≤ 100 |
| CN(CCn1cnc(-c2cc(C(=O)O)ccn2)c1)CC1CC1 [Example 59, 2-(1-{2-[(cyclopropylmethyl)(methyl)amino]ethyl}-1H-imidazol-4-yl)pyridine-4-carboxylic acid] | ≤ 100 | ≤ 100 | ≤ 100 | ≤ 100 | 100 to 1000 |
| O=C(O)c1ccnc(-c2cn(CCN3CCCC3=O)cn2)c1 [Example 60, 2-{1-[2-(2-oxopyrrolidin-1-yl)ethyl]-1H-imidazol-4-yl}pyridine-4-carboxylic acid] | ≤ 100 | ≤ 100 | 100 to 1000 | ≤ 100 | ≤ 100 |
| c1cc(-c2nn[nH]n2)cc(-c2cn(CCN3CCCC3)cn2)n1 [Example 63, 2-{1-[2-(pyrrolidin-1-yl)ethyl]-1H-imidazol-4-yl}-4-(2H-tetrazol-5-yl)pyridine] | ≤ 100 | ≤ 100 | 100 to 1000 | 1000 to 10000 | 100 to 1000 |
| CN(CCn1cnc(-c2cc(C(=O)NC#N)ccn2)c1)CC1CC1 [Example 64, N-cyano-2-(1-{2-[(cyclopropylmethyl)(methyl)amino]ethyl}-1H-imidazol-4-yl)pyridine-4-carboxamide] | ≤ 100 | ≤ 100 | 100 to 1000 | > 10000 | > 10000 |
| Cc1cccc(CN(C)CCn2cnc(-c3cc(C(=O)O)ccn3)c2)c1 [Example 66, 2-[1-[2-[methyl-[(3-methylphenyl)methyl]amino]ethyl]imidazol-4-yl]pyridine-4-carboxylic acid] | ≤ 100 | ≤ 100 | ≤ 100 | ≤ 100 | ≤ 100 |
| Cc1ccc(CN(C)CCn2cnc(-c3cc(C(=O)O)ccn3)c2)cc1 [Example 67, 2-[1-[2-[methyl-[(4-methylphenyl)methyl]amino]ethyl]imidazol-4-yl]pyridine-4-carboxylic acid] | ≤ 100 | ≤ 100 | ≤ 100 | ≤ 100 | ≤ 100 |
| CN(CCn1cnc(-c2cc(C(=O)O)ccn2)c1)Cc1ccc(C(F)(F)F)cc1 [Example 68, 2-[1-[2-[methyl-[[4-(trifluoromethyl)phenyl]methyl]amino]ethyl]imidazol-4-yl]pyridine-4-carboxylic acid] | ≤ 100 | ≤ 100 | ≤ 100 | ≤ 100 | ≤ 100 |
| CN(CCn1cnc(-c2cc(C(=O)O)ccn2)c1)Cc1cccc(F)c1 [Example 69, 2-[1-[2-[(3-fluorophenyl)methyl-methylamino]ethyl]imidazol-4-yl]pyridine-4-carboxylic acid] | ≤ 100 | ≤ 100 | ≤ 100 | ≤ 100 | ≤ 100 |
| CCN(CCn1cnc(-c2cc(C(=O)O)ccn2)c1)Cc1ccc(F)cc1 [Example 70, 2-[1-[2-[ethyl-[(4-fluorophenyl)methyl]amino]ethyl]imidazol-4-yl]pyridine-4-carboxylic acid] | ≤ 100 | ≤ 100 | ≤ 100 | ≤ 100 | ≤ 100 |
| O=C(O)c1ccnc(-c2cn(CCN3Cc4ccc(C(F)(F)F)cc4C3)cn2)c1 [Example 84, 2-[1-[2-[5-(trifluoromethyl)-1,3-dihydroisoindol-2-yl]ethyl]imidazol-4-yl]pyridine-4-carboxylic acid] | ≤ 100 | ≤ 100 | ≤ 100 |  | ≤ 100 |
| O=C(O)c1ccnc(-c2cn(CCN(Cc3ccc(Cl)cc3)C3CC3)cn2)c1 [Example 85, 2-[1-[2-[(4-chlorophenyl)methyl-cyclopropylamino]ethyl]imidazol-4-yl]pyridine-4-carboxylic acid] | ≤ 100 | ≤ 100 | 100 to 1000 |  | ≤ 100 |
| O=C(O)c1ccnc(-c2cn(CCN(Cc3ccc(Cl)c(Cl)c3)C3CC3)cn2)c1 [Example 86, 2-[1-[2-[cyclopropyl-[(3,4-dichlorophenyl)methyl]amino]ethyl]imidazol-4-yl]pyridine-4-carboxylic acid] | ≤ 100 | ≤ 100 | 100 to 1000 |  | ≤ 100 |
| CN(CCn1cnc(-c2cc(C(=O)O)ccn2)c1)c1ccc(Cl)cc1 [Example 87, 2-[1-[2-(4-chloro-N-methylanilino)ethyl]imidazol-4-yl]pyridine-4-carboxylic acid] | ≤ 100 | ≤ 100 | 100 to 1000 | 100 to 1000 | ≤ 100 |
| O=C(O)c1ccnc(-c2cn(CCc3cccc(Cl)c3)cn2)c1 [Example 113, 2-[1-[2-(3-chlorophenyl)ethyl]imidazol-4-yl]pyridine-4-carboxylic acid] | ≤ 100 | ≤ 100 | 100 to 1000 |  | ≤ 100 |
| O=C(O)c1ccnc(-c2cn(CCC3CCCCC3)cn2)c1 [Example 114, 2-[1-(2-cyclohexylethyl)imidazol-4-yl]pyridine-4-carboxylic acid] | ≤ 100 | ≤ 100 | 100 to 1000 |  | ≤ 100 |
| O=C(O)c1ccnc(-c2cn(CC3CCCCC3)cn2)c1 [Example 115, 2-[1-(cyclohexylmethyl)imidazol-4-yl]pyridine-4-carboxylic acid] | ≤ 100 | ≤ 100 | 100 to 1000 |  | ≤ 100 |
| c1ccc2c(CCn3cnc(-c4cc(-c5nn[nH]n5)ccn4)c3)cccc2c1 [Example 142, 2-[1-(2-naphthalen-1-ylethyl)imidazol-4-yl]-4-(2H-tetrazol-5-yl)pyridine] |  | ≤ 100 | 1000 to 10000 | > 10000 | ≤ 100 |
| c1ccc2c(c1)CCCC2Cn1cnc(-c2cc(-c3nn[nH]n3)ccn2)c1 (stereo not drawn) [Example 143, 2-[1-(1,2,3,4-tetrahydronaphthalen-1-ylmethyl)imidazol-4-yl]-4-(2H-tetrazol-5-yl)pyridine] |  | 100 to 1000 | 1000 to 10000 | > 10000 | ≤ 100 |
